{"source": "patent US7560454B2", "about": "“Condensed azepines as vasopressin agonists” (Vantia Limited, priority 2000, dated 2009)", "system": "Brattleboro rat", "experiment": "inhibition of urine output in Brattleboro rats", "type": "in vivo", "details": "1 mg/kg p.o. in methylcellulose, vs control animals", "procedure": "The Brattleboro rat is a recognised model for vasopressin deficiency (for a review see F D Grant, “Genetic models of vasopressin deficiency”, Exp. Physiol. 85, 203S-209S, 2000). […] Compounds of the invention were administered to Brattleboro rats (0.1-10 mg/kg p.o. in methylcellulose. Urine was collected hourly and volumes were compared with control animals. Animals had free access to food and water throughout the experiment. Representative results are given in the Table. Results for Desmopressin are given for comparison.", "data": [{"smiles": "Cc1cc(C(=O)N2CCCCc3ccccc32)ccc1CNC(=O)N1CCC[C@H]1C(=O)N(C)C", "note": "[Example 1, 1-(2-Methyl-4-(2,3,4,5-tetrahydro-1-benzazepin-1-ylcarbonyl)benzylcarbamoyl)-L-proline-N,N-dimethylamide]", "values": [{"measurement": "% inhibition of urine output (at 1 hour)", "result": 82, "unit": "%"}]}]}
